Tests used:
DLD1 NRF2-GOF [1] = assay: drug sensitivity score (DSS) viability (DSS score); higher = more sensitive; extreme values may be limits of the assay; settings: 72 h; CellTiter-Glo viability
How it was run: (§1)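 DLD1 colorectal cancer cells, an isogenic pair either NRF2 wild-type or carrying a CRISPR gain-of-function, were cultured in DMEM with 10% FBS and treated in 384-well plates with library compounds at 5 concentrations across a 10,000-fold range. CellTiter-Glo viability was read on a Pherastar FS reader after 72 h and normalised to vehicle wells and 100-μM positive-control wells. Four-parameter logistic dose-response fits were applied. EC50 and drug sensitivity score, a normalised area under the curve, were taken from these fits.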

DLD1 NRF2-GOF [2] = assay: TC50 cytotoxicity; higher = less toxic; settings: 72 h; CellTox Green cytotoxicity
How it was run: (§2)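 Isogenic DLD1 colorectal cancer cells, either NRF2 wild-type or CRISPR gain-of-function, were grown in DMEM with 10% FBS. They were exposed in 384-well plates to library compounds at 5 concentrations spanning a 10,000-fold range. After 72 h, cytotoxicity was read by CellTox Green on a Pherastar FS reader and normalised to vehicle wells and 100-μM positive-control wells. TC50 and drug sensitivity score (a normalised area under the curve) came from logistic dose-response fits.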

DLD1 NRF2-WT [3] = assay: TC50 cytotoxicity; higher = less toxic; settings: 72 h; CellTox Green cytotoxicity
How it was run: as §2

DLD1 NRF2-GOF [4] = settings: 72 h; CellTiter-Glo viability
How it was run: as §1

DLD1 NRF2-GOF [5] = assay: drug sensitivity score (DSS) cytotoxicity (DSS score); higher = more toxic; extreme values may be limits of the assay; settings: 72 h; CellTox Green cytotoxicity
How it was run: as §2

DLD1 NRF2-WT [6] = assay: as above; settings: 72 h; CellTox Green cytotoxicity
How it was run: as §2

DLD1 NRF2-WT [7] = assay: drug sensitivity score (DSS) viability (DSS score); higher = more sensitive; extreme values may be limits of the assay; settings: 72 h; CellTiter-Glo viability
How it was run: as §1

DLD1 NRF2-WT [8] = settings: 72 h; CellTiter-Glo viability
How it was run: as §1

Compound | drug sensitivity score (DLD1 NRF2-GOF [1]) | TC50 cytotoxicity (DLD1 NRF2-GOF [2]) [µM] | TC50 cytotoxicity (DLD1 NRF2-WT [3]) [µM] | EC50 viability (DLD1 NRF2-GOF [4]) [µM] | drug sensitivity score (DLD1 NRF2-GOF [5]) | drug sensitivity score (DLD1 NRF2-WT [6]) | drug sensitivity score (DLD1 NRF2-WT [7]) | EC50 viability (DLD1 NRF2-WT [8]) [µM]
O=C1CCC(N2C(=O)c3ccccc3C2=O)C(=O)N1 (stereo not given) [Thalidomide] | 0.7 | > 10 | > 10 | > 10 | 0 | 0 | – | –
Nc1cc(F)ccc1NC(=O)/C=C/c1cnn(C/C=C/c2ccccc2)c1 [RGFP966] | 3.7 | > 10 | > 10 | 1.07 | 0 | 0 | 3.9 | –
CCC(C)(C)C(=O)O[C@H]1C[C@@H](C)C=C2C=C[C@H](C)[C@H](CC[C@@H]3C[C@@H](O)CC(=O)O3)[C@H]21 [Simvastatin] | 3.8 | – | – | 0.571 | – | – | 0 | –
Cn1nnc2c(C(N)=O)ncn2c1=O [Temozolomide] | 4.1 | > 100 | > 100 | 8.09 | 0 | 0 | – | –
O=C(CCCCCCC(=O)Nc1ccccc1)NO [Vorinostat] | 3.5 | > 10 | 2.24 | 3.55 | 0 | 2.2 | – | –
CC(C)C[C@H](NC(=O)[C@@H](COC(C)(C)C)NC(=O)[C@H](Cc1ccc(O)cc1)NC(=O)[C@H](CO)NC(=O)[C@H](Cc1c[nH]c2ccccc12)NC(=O)[C@H](Cc1cnc[nH]1)NC(=O)[C@@H]1CCC(=O)N1)C(=O)N[C@@H](CCCNC(=N)N)C(=O)N1CCC[C@H]1C(=O)NNC(N)=O [Goserelin] | 0 | > 10 | > 10 | > 10 | 0 | 0 | 4.5 | –
Cn1ncc(Cl)c1-c1cc(C(=O)N[C@H](CN)Cc2cccc(F)c2)sc1Cl [Afuresertib] | 0.6 | > 1 | > 1 | > 1 | 0 | 0 | 1 | –
CCC1=C[C@@H]2CN(C1)Cc1c([nH]c3ccccc13)[C@@](C(=O)OC)(c1cc3c(cc1OC)N(C)[C@H]1[C@@](O)(C(=O)OC)[C@H](OC(C)=O)[C@]4(CC)C=CCN5CC[C@]31[C@@H]54)C2 [Vinorelbine] | 32.2 | > 10 | – | 0.0051 | 7.5 | 8.1 | – | –
NCC(=O)Nc1ccc(-n2nc(C(F)(F)F)cc2-c2ccc3c(ccc4ccccc43)c2)cc1 | 0 | > 25 | > 25 | > 25 | 0 | 0 | 0.8 | –
COc1cccc2c1C(=O)c1c(O)c3c(c(O)c1C2=O)C[C@@](O)(C(=O)CO)C[C@@H]3O[C@H]1C[C@H](N)[C@@H](O)[C@H](C)O1 [Epirubicin] | 8.6 | > 1 | > 1 | 0.153 | 0 | 0 | – | –
CC(C)C(=O)Nc1ccc([N+](=O)[O-])c(C(F)(F)F)c1 [Flutamide] | 4.6 | > 10 | > 10 | 0.796 | 0 | 0 | 0.9 | –
Cn1cnc2c(F)c(Nc3ccc(Br)cc3Cl)c(C(=O)NOCCO)cc21 [Selumetinib] | 0 | > 10 | > 10 | > 10 | 0 | 0 | 2 | –
O=C(c1cc(Cc2n[nH]c(=O)c3ccccc23)ccc1F)N1CCN(C(=O)C2CC2)CC1 [Olaparib] | 2.6 | > 10 | > 10 | 1.4 | 0 | 0 | – | –
COc1cc2c(NC3CCN(C(C)C)CC3)nc(C3CCCCC3)nc2cc1OCCCN1CCCC1 [UNC0638] | 0.2 | > 10 | > 10 | > 10 | 0 | 0 | 2.4 | –
Cc1c(-c2c(-c3ccc(F)o3)sc3ncnc(O[C@H](Cc4ccccc4OCc4ccnn4CC(F)(F)F)C(=O)O)c23)ccc(OCCN2CCN(C)CC2)c1Cl | 0 | > 1 | > 1 | > 1 | 0 | 0 | 3.6 | –
CC(=O)Nc1ccc(C(=O)Nc2ccccc2N)cc1 [Tacedinaline] | 4 | > 1 | > 1 | 0.0582 | 0 | 0 | 1.9 | –
C[C@H](Nc1ncnc2[nH]cnc12)c1cc2ccc(F)cc2nc1-c1ccccn1 [AMG319] | 1.6 | > 1 | > 1 | > 1 | 0 | 0 | – | –
CC(C)Cn1cnc2c(N)nc3ccccc3c21 [Imiquimod] | 3.9 | > 2.5 | > 2.5 | 0.0443 | 0 | 0 | – | –
Cc1noc2c1-c1ccccc1C(c1ccc(Cl)cc1)=N[C@H]2CC(N)=O [CPI-0610] | 3.6 | > 10 | > 10 | 0.362 | 0 | 0 | – | –
CN(C)CC#Cc1ccc(OCCCc2sc(N3CCc4cccc(C(=O)Nc5nc6ccccc6s5)c4C3)nc2C(=O)O)c(F)c1 | 0 | 0.994 | – | > 10 | 3.3 | – | – | –
Oc1ncnc2[nH]ncc12 [Allopurinol] | 0 | > 10 | > 10 | > 10 | 0 | 0 | – | –
C/C=C1\NC(=O)[C@H]2CSSCC/C=C/[C@H](CC(=O)N[C@H](C(C)C)C(=O)N2)OC(=O)[C@H](C(C)C)NC1=O [Romidepsin] | 23.4 | 0.121 | 0.105 | 0.006 | 2.9 | 9.6 | – | –

Compound | drug sensitivity score (DLD1 NRF2-GOF [1]) | TC50 cytotoxicity (DLD1 NRF2-GOF [2]) [µM] | TC50 cytotoxicity (DLD1 NRF2-WT [3]) [µM] | EC50 viability (DLD1 NRF2-GOF [4]) [µM] | drug sensitivity score (DLD1 NRF2-GOF [5]) | drug sensitivity score (DLD1 NRF2-WT [6]) | drug sensitivity score (DLD1 NRF2-WT [7]) | EC50 viability (DLD1 NRF2-WT [8]) [µM]
O=C(c1ccc(OCCN2CCCCC2)cc1)c1c(-c2ccc(O)cc2)sc2cc(O)ccc12 [Raloxifene] | 3.2 | – | – | 2.1 | – | – | – | –
N[C@@H]1CCCN(c2c(/C=C3\SC(=O)NC3=O)cccc2-c2ccccc2)C1 [AZD1208] | 7.2 | > 10 | > 10 | > 10 | 0 | 0 | – | –
Nc1ncnc2c1c(COc1cccc(Cl)c1)nn2C1CCOCC1 | 0.6 | > 10 | > 10 | > 10 | 0 | 0 | – | –
Cc1nc(NC(=O)N2CCC[C@H]2C(N)=O)sc1-c1ccnc(C(C)(C)C(F)(F)F)c1 [Alpelisib] | 0.3 | > 2.5 | > 2.5 | > 2.5 | 0 | 0 | 2.4 | –
C#Cc1cccc(Nc2ncnc3cc4c(cc23)OCCOCCOCCO4)c1 [Icotinib] | 0.7 | > 10 | > 10 | – | 0 | 0 | 2.5 | 1.54
O=C(Nc1cnn2ccc(N3CCC[C@@H]3c3cc(F)ccc3F)nc12)N1CC[C@H](O)C1 [Larotrectinib] | 0.5 | > 1 | > 1 | > 1 | 0 | 0 | – | –
CC/C(=C(\c1ccc(O)cc1)c1ccc(OCCN(C)C)cc1)c1ccccc1 [4-hydroxytamoxifen] | 10.6 | > 10 | > 10 | 0.0088 | 0 | 0 | 5 | –
O=C(CCCCCCC(=O)Nc1ccc([C@H]2O[C@@H](CSc3nc(-c4ccccc4)c(-c4ccccc4)o3)C[C@@H](c3ccc(CO)cc3)O2)cc1)NO [Tubacin] | 3 | > 10 | > 10 | 1.71 | 0 | 0 | 2.7 | –
Cn1ncnc1[C@H]1c2n[nH]c(=O)c3cc(F)cc(c23)N[C@@H]1c1ccc(F)cc1 [Talazoparib] | 2.4 | > 1 | > 1 | > 1 | 0 | 0 | 5.6 | –
CNC(=O)c1cc(Oc2ccc(NC(=O)Nc3ccc(Cl)c(C(F)(F)F)c3)cc2)ccn1 [Sorafenib] | 3.3 | > 1 | > 1 | 0.0871 | 0 | 0 | 1.2 | –
CCc1nc(C(N)=O)c(Nc2ccc(N3CCC(N4CCN(C)CC4)CC3)c(OC)c2)nc1NC1CCOCC1 [Gilteritinib] | 1.4 | > 1 | > 1 | – | 0 | 0 | 2.9 | 0.251
CC[C@H](C)C(=O)O[C@H]1C[C@@H](C)C=C2C=C[C@H](C)[C@H](CC[C@@H]3C[C@@H](O)CC(=O)O3)[C@H]21 [Lovastatin] | 5.2 | > 10 | > 10 | – | 0 | 0 | 0 | > 10
CC1(C)C(C(=O)Nc2ccc(S(=O)(=O)c3ccc(NC(=O)C4C(C)(C)C4(C)C)cc3)cc2)C1(C)C [BRD7116] | 7.6 | – | – | 0.0482 | – | – | 5.5 | –
CS(=O)(=O)CCNCc1ccc(-c2ccc3ncnc(Nc4ccc(OCc5cccc(F)c5)c(Cl)c4)c3c2)o1 [Lapatinib] | 4.4 | > 1 | > 1 | 0.0283 | 0 | 0 | 2.8 | –
CO[C@H]1C[C@@H]2CC[C@@H](C)[C@@](O)(O2)C(=O)C(=O)N2CCCC[C@H]2C(=O)O[C@H]([C@H](C)C[C@@H]2CC[C@@H](OP(C)(C)=O)[C@H](OC)C2)CC(=O)[C@H](C)/C=C(\C)[C@@H](O)[C@@H](OC)C(=O)[C@H](C)C[C@H](C)/C=C/C=C/C=C/1C [Ridaforolimus] | 0.8 | – | – | > 0.1 | – | – | 3.5 | –
O=C(NOC[C@H](O)CO)c1ccc(F)c(F)c1Nc1ccc(I)cc1F | 0.1 | > 1 | > 1 | > 1 | 0 | 0 | 2 | –
O=c1[nH]c(C2CCCN2)nc2c1oc1ccc(Cl)cc12 (stereo not given) | 0.7 | > 10 | > 10 | – | 0 | 0 | 0.9 | > 10
COCCNCc1ccc(-c2cc3nccc(Oc4ccc(NC(=O)C5(C(=O)Nc6ccc(F)cc6)CC5)cc4F)c3s2)nc1 [Sitravatinib] | 5.5 | > 2.5 | > 2.5 | – | 0 | 0 | 4.6 | 0.138
O=S(=O)(c1cccc2c(O)nccc12)N1CCCNCC1 [Hydroxyfasudil] | 3.9 | > 19 | > 19 | 2.83 | 0 | 0 | 2.4 | –
CC(C)Oc1ccc(C(=O)N[C@H](CNC(=O)CN(C)C)Cc2ccc(-c3cn4cccc([C@H](C)O)c4n3)cc2)cc1Cl | 10.7 | > 10 | > 10 | 0.182 | 0 | 0 | – | –
COc1cc2ncnc(Oc3cccc(NC(=O)Nc4cc(C(C)(C)C(F)(F)F)on4)c3)c2cc1OC | 0.6 | > 10 | > 10 | – | 0 | 0 | 1.4 | > 10

— the supplement of paper PMC7600603
